≈ marks a conversion by molar mass, not a printed value.
Tests used:
NCI-H1975 [1] = assay: Antiproliferative activity against human NCI-H1975 cells harboring EGFR L858R/T790M mutant after 72 hrs by MTT assay; type: functional, cell-based; conditions: NCI-H1975, 72 h
HCC827 = assay: Antiproliferative activity against human HCC827 cells harboring EGFR Del19 mutant after 72 hrs by MTT assay; type: functional, cell-based; conditions: HCC827, 72 h
[2] = Aqueous solubility of the compound at 1 mg; type: physicochemical
A549 = assay: Antiproliferative activity against human A549 cells harboring wild type EGFR after 72 hrs by MTT assay; type: functional, cell-based; conditions: A549, 72 h
NCI-H1975 [3] = assay: Antitumor activity against human NCI-H1975 cells xenografted in nude mouse assessed as tumor growth inhibition at 25 mg/kg administered via oral gavage qd measured every 2 days up to 18 days relative to control; type: functional; conditions: read-out: TGI

## C=CS(=O)(=O)N1CCC[C@@H]1Cn1cc(-c2ccc(Oc3ccccc3)cc2)c2c(N)ncnc21
NCI-H1975 [1]
  IC50: 440 nM
HCC827
  IC50: 504 nM
[2]
  solubility: < 10 µg/mL
A549
  IC50: 7440 nM

## C=CC(=O)N1CCC(Cn2cc(-c3ccc4c(c3)OCO4)c3c(N)ncnc32)C1 (single isomer, unassigned)
NCI-H1975 [1]
  IC50: 6300 nM
[2]
  solubility: 100 µg/mL (≈ 255 µM)
A549
  IC50: 8240 nM

## C=CC(=O)N1CCC[C@@H]1Cn1cc(-c2ccc3c(c2)OCO3)c2c(N)ncnc21
NCI-H1975 [1]
  IC50: 2920 nM
[2]
  solubility: 100 µg/mL (≈ 255 µM)
A549
  IC50: 12900 nM

## C=CC(=O)N1CCC[C@@H](n2nc(-c3ccc(Oc4ccccc4)cc3)c3c(N)ncnc32)C1 [IBRUTINIB]
NCI-H1975 [1]
  IC50: 1270 nM
HCC827
  IC50: 39 nM
[2]
  solubility: < 10 µg/mL
A549
  IC50: 21800 nM
NCI-H1975 [3]
  inhibition in vivo at 25 mg/kg: 59.6%

## C=CS(=O)(=O)N1CC[C@H](Cn2cc(-c3ccc4c(c3)OCO4)c3c(N)ncnc32)C1
NCI-H1975 [1]
  IC50: 330 nM
HCC827
  IC50: 16 nM
[2]
  solubility: 100 µg/mL (≈ 234 µM)
A549
  IC50: 1780 nM

## C=CC(=O)N1CCC(Cn2cc(-c3ccc(Oc4ccccc4)cc3)c3c(N)ncnc32)C1 (single isomer, unassigned)
NCI-H1975 [1]
  IC50: 6310 nM
[2]
  solubility: < 10 µg/mL
A549
  IC50: 14200 nM

## C=CC(=O)N1CCC[C@@H]1Cn1cc(-c2ccc(Oc3ccccc3)cc2)c2c(N)ncnc21
NCI-H1975 [1]
  IC50: 1920 nM
[2]
  solubility: < 10 µg/mL
A549
  IC50: 15500 nM

## C=CS(=O)(=O)N1CC[C@H](Cn2cc(-c3ccc(Oc4ccccc4)cc3)c3c(N)ncnc32)C1
NCI-H1975 [1]
  IC50: 910 nM
HCC827
  IC50: 581 nM
[2]
  solubility: < 10 µg/mL
A549
  IC50: 13000 nM

Reference: ChEMBL document CHEMBL4052785, “Discovery of (R)-5-(benzo[d][1,3]dioxol-5-yl)-7-((1-(vinylsulfonyl)pyrrolidin-2-yl)methyl)-7H-pyrrolo[2,3-d]pyrimidin-4-amine (B6) as a potent Bmx inhibitor for the treatment of NSCLC” (Bioorg Med Chem Lett, 2017)
